Experiment [1] deals with human non-small cell lung cancer A549 transplanted tumor. As to the kind of experiment: Example 9: tumor growth in A549 transplanted tumor model. It is filed as in vivo, nude mice. The text has this: Human non-small cell lung cancer cells A549 were obtained from the Cell Bank of the Type Culture Collection Committee of Chinese Academy of Sciences (CAS, cryopreserved in liquid nitrogen in this assay). […] On D1 of the assay, the A549 cells in the logarithmic growth phase were collected, counted and resuspended in PBS, and the cell concentration was adjusted to 8×10^7 cells/mL. The cells were pipetted with a pipette to disperse them evenly, and the cells were put into a 50-mL centrifuge tube, which was placed in an ice box. A 1-mL syringe was used to draw the cell suspension, which was injected subcutaneously into the axilla of the front right limb of a nude mouse. Each animal was inoculated with 100 μL (8×10^6 cells/mouse) to establish an A549 transplanted tumor model in nude mice. After the inoculation, the animal status and tumor growth were regularly observed. On D18, the tumor diameter was measured using an electronic vernier caliper. The data were input into an Excel spreadsheet to calculate the tumor volume. Tumor-bearing mice in good health and with similar tumor volumes (101 to 156 mm^3) were selected and divided into groups using randomized block method. After the start of the assay, the tumor diameter was measured regularly, the tumor volume was calculated, and the animal body weight was also weighed and recorded. On the last day of the assay, CO2 inhalation anesthesia was used on the animals 1 hour after the administration (R01). Blood was collected through the heart, and a part of the whole blood was added with EDTA-K2 for anticoagulation. The plasma was separated by centrifugation at 4° C. and 1500 g for 10 minutes. The plasma was collected, and stored in a −40° C. to −20° C. freezer (if necessary, it can be used for the determination of the plasma drug concentration). No anticoagulant was added to the other part of the whole blood, and the serum was separated by centrifugation after the blood coagulated, which was used for the detection of blood urea nitrogen. After the blood collection, the tumor tissue was collected, weighed and photographed. Then, the tumor was divided into two parts, quickly cryopreserved by liquid nitrogen, and transferred to a −90° C. to −60° C. freezer for storage. […] [table]

The subject of a further experiment is A549 cells. The experiment is described as follows: CCK-8 cell proliferation assay, A549. The settings on record: Homo sapiens. It is filed as cell-based. The procedure:
(1) Cells in the logarithmic growth phase were taken and digested to make a cell suspension. 20 μl of the cell suspension was taken with a pipette, and added to a CountStar disposable cell counting plate for cell counting, and the counting results were recorded. The cell concentration was adjusted to 30,000 to 40,000 cells/ml (note: different cells have different growth rates, so the number of cells in each well was slightly different).
(2) A 96-well plate was taken. Since the wells in the outermost circle of the culture plate were easy to evaporate and dry, causing inaccurate volumes, and increasing errors, 100 μl of PBS was added to the wells in the outermost circle, which were not used as assay wells.
(3) The adjusted cell suspension was added to the 96-well plate, with 100 μl in each well, resulting approximately 3000 to 4000 cells in each well. The plate was placed in a 37° C. incubator under the condition of 5% CO2 for cell culture, and the drug was added when the cells adhered to the wall.
(4) Drug dilution. The concentration gradient was set as: 0 μM, 10 μM, 50 μM, 100 μM, and 200 μM, with 3 duplicates for each concentration. In addition, blank control wells containing only culture medium and drug without cells were also set.
(5) The plate was incubated in the incubator for 24 h, 48 h and 72 h, respectively. After reaching the set time point, the 96-well plate was taken out from the incubator, and 10 μl of CCK-8 reagent was added to each well, taking care to avoid bubbles. The plate was shaked to mix evenly, and put back into the incubator to culture for another 2 hours.
(6) To detect the absorbance, the 96-well plate was placed in a […], and the absorbance value (OD value) at 450 nm was detected. The data was recorded. Cell viability=(OD value of the assay well−OD value of the blank control well)/(OD value of the solvent control well−OD value of the blank control well)×100%.
(7) The data was imported into GraphPad Prism5 for plotting. The IC50 values were calculated, and the curves were drawn.

[2] abbreviates: D21, DDP 5/7/7/7 mg/kg i.p. QW×4.
Setting [3] is: D25, DDP 5/7/7/7 mg/kg i.p. QW×4.
The mark [4] stands for this setting: D28, DDP 5/7/7/7 mg/kg i.p. QW×4.
Where [5] appears, read: D32, DDP 5/7/7/7 mg/kg i.p. QW×4.
[6] abbreviates: D35, DDP 5/7/7/7 mg/kg i.p. QW×4.
Where [7] appears, read: D39, DDP 5/7/7/7 mg/kg i.p. QW×4.
Setting [8] is: D42, DDP 5/7/7/7 mg/kg i.p. QW×4.
Where [9] appears, read: D46, DDP 5/7/7/7 mg/kg i.p. QW×4.

SMILES strings stand for the structures. Marks after values point to notes of the source that are not given here.

Consider `N.N.[Cl][Pt][Cl]` [DDP, cisplatin], for which the Mean tumor volume was 127 ± 6 mm^3 in experiment [1] (D18, DDP 4 mg/kg i.p. QW×4); 130 ± 5 mm^3 in experiment [1] (D18, DDP 5/7/7/7 mg/kg i.p. QW×4); 210 ± 10 mm^3 in experiment [1] (D21, DDP 4 mg/kg i.p. QW×4); 208 ± 11 mm^3 in experiment [1] (setting [2]); 297 ± 20** mm^3 in experiment [1] (D25, DDP 4 mg/kg i.p. QW×4); 308 ± 23** mm^3 in experiment [1] (setting [3]). Moreover, the Mean tumor volume in experiment [1] (D28, DDP 4 mg/kg i.p. QW×4) is given as 418 ± 28** mm^3; in experiment [1] (setting [4]) it was 428 ± 30** mm^3; in experiment [1] (D32, DDP 4 mg/kg i.p. QW×4), 561 ± 35** mm^3; in experiment [1] (setting [5]) it was 562 ± 41** mm^3; in experiment [1] (D35, DDP 4 mg/kg i.p. QW×4), 670 ± 56** mm^3; in experiment [1] (setting [6]) it was 696 ± 52* mm^3. Further, the Mean tumor volume is listed as 914 ± 89** mm^3 in experiment [1] (D39, DDP 4 mg/kg i.p. QW×4); 892 ± 86** mm^3 in experiment [1] (setting [7]); 1110 ± 119 mm^3 in experiment [1] (D42, DDP 4 mg/kg i.p. QW×4); 1099 ± 85* mm^3 in experiment [1] (setting [8]); 1333 ± 176 mm^3 in experiment [1] (D46, DDP 4 mg/kg i.p. QW×4); 1236 ± 32* mm^3 in experiment [1] (setting [9]). The “tumor growth inhibition rate (TGI)” value in experiment [1] (D21, DDP 4 mg/kg i.p. QW×4) is given as “(−1.0%)”; in experiment [1] (setting [2]), “(4.7%)”; in experiment [1] (D25, DDP 4 mg/kg i.p. QW×4) it was “(37%)”; in experiment [1] (setting [3]), “(34%)”; in experiment [1] (D28, DDP 4 mg/kg i.p. QW×4) it was “(29%)”; in experiment [1] (setting [4]) it was “(27%)”. In addition, the “tumor growth inhibition rate (TGI)” value in experiment [1] (D32, DDP 4 mg/kg i.p. QW×4) is “(27%)”; in experiment [1] (setting [5]), “(28%)”; in experiment [1] (D35, DDP 4 mg/kg i.p. QW×4), “(26%)”; in experiment [1] (setting [6]), “(22%)”; in experiment [1] (D39, DDP 4 mg/kg i.p. QW×4) it was “(30%)”; in experiment [1] (setting [7]), “(33%)”. Further, the “tumor growth inhibition rate (TGI)” value in experiment [1] (D42, DDP 4 mg/kg i.p. QW×4) was “(23%)”; in experiment [1] (setting [8]), “(24%)”; in experiment [1] (D46, DDP 4 mg/kg i.p. QW×4), “(20%)”; in experiment [1] (setting [9]), “(27%)”. Besides, the “effect on growth of the A549 transplanted tumor (summary)” value in experiment [1] (DDP 4 or 5/7/7/7 mg/kg QW, R01 formulation 18 or 36 mg/kg BID, combinations 18+5/7/7/7 and 36+4) is reported as “no significant effect”.
On to `COC1=C(OC)C(=O)C(CCCCCCCCCCOC(=O)Cc2c(C)n(C(=O)c3ccc(Cl)cc3)c3ccc(OC)cc23)=C(C)C1=O` [compound of formula (I)], for which the results for the IC50 with A549 cells (24 h), in the experiment on A549 cells (48 h) and with A549 cells (72 h) were 213.2 ± 1.22 µM, 55.5 ± 1.84 µM and 39.7 ± 0.98 µM, respectively.

Source of the values: US20250270170A1, “2,3-DIMETHOXY-5-METHYL-1,4-BENZOQUINONE ALKYL ALCOHOL DERIVATIVE AND USE THEREOF” (BEIJING ANJIANXI BIO-MEDICAL TECHNOLOGY CO., LTD., priority 2021, published 2025).
